The values below are quoted from earlier work in patent US11789016B2, “Methods, systems and kits for in-pen assays” (Berkeley Lights, Inc., priority 2017, dated 2023).

Like-named read-outs stand apart in the source and are kept apart here.

The series addresses IgG. Particulars: for Kd: read-out: Affinity for IgG.

As to “CPD 1: Protein A-AF594, Pierce Recombinant Protein A (ThermoFisher Cat. # 77674)”, the “Affinity for IgG” value (order of magnitude in words) is on record as “nanomolar”. As to “DCAWHLGELVWCT [CPD 4, Asp Cys Ala Trp His Leu Gly Glu Leu Val Trp Cys Thr]”, the Kd (Fc) is 0.1 µM.

As to “5′-rGp-rGp-rAp-rGp-rGp-fUp-rGp-fCp-fUp-fCp-fCp-rGp-rAp-rAp-rAp-rGp-rGp-rAp-rAp-fCp-fUp-fCp-fCp-3′ [CPD 5]”, the Kd (Fc of hIgG) was 0.075 µM.
